Article PMC8119466, “A screen of FDA-approved drugs identifies inhibitors of protein tyrosine phosphatase 4A3 (PTP4A3 or PRL-3)” (Scientific Reports, 2021)
Where a name gives a salt, the structure may show the parent alone. Read-outs that look alike come from different tables or passages of the source.

Key:
Type in all cases: biochemical
[1] = biological target: T1, recombinant PRL-2 (Homo sapiens, UniProt Q12974); assay: In vitro phosphatase assay (DiFMUP hydrolysis), PRL-2;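 further: PRL-2 activity read as DiFMUP hydrolysis after 20 min at room temperature with drug, enzyme first pre-reduced at 4 °C for 20 min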
T1 construct: 6xHis (N, cleaved yes); made in house; host or cells: E. coli One Shot BL21 Star
T1 sequence (Q12974 1-167): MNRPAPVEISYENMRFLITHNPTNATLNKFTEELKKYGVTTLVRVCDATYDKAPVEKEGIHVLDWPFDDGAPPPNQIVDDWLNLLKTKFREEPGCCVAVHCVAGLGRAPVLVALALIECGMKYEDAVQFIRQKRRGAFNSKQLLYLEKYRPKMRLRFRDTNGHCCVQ

[2] = biological target: T2, recombinant PRL-1 (Homo sapiens, UniProt Q93096); assay: In vitro phosphatase assay (DiFMUP hydrolysis), PRL-1; further: test concentration or dose not given here
T2 construct: 6xHis (N, cleaved yes); made in house; host or cells: E. coli One Shot BL21 Star
T2 sequence (Q93096 1-173): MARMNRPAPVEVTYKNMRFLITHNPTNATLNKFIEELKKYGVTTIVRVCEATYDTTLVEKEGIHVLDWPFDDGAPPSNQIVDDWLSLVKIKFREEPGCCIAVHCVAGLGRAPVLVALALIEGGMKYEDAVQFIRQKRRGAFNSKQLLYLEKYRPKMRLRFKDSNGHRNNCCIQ

[3] = biological target: T3, recombinant PRL-3 (Homo sapiens, UniProt O75365); assay: In vitro phosphatase assay (DiFMUP hydrolysis), PRL-3; further: test concentration or dose not given here
T3 construct: 6xHis (N, cleaved yes); made in house; host or cells: E. coli One Shot BL21 Star

[4] = FDA-approved drug screen, compared to DMSO

T3 sequence (O75365 whole entry): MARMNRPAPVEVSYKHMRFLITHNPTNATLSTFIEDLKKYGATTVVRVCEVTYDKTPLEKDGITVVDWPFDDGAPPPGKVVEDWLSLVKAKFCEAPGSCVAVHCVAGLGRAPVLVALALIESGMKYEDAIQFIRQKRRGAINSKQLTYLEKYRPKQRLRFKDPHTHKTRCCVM

SMILES | % Phosphatase Activity (compared to DMSO) PRL-2 [1, 4] [%] | % Phosphatase Activity (compared to DMSO) PRL-1 [2, 4] [%] | % Phosphatase Activity (compared to DMSO) PRL-3 [3, 4] [%] | % Phosphatase Activity (compared to DMSO) PRL-2 [1] [%] | % Phosphatase Activity (compared to DMSO) PRL-1 [2] [%] | % Phosphatase Activity (compared to DMSO) PRL-3 [3] [%]
Cl.Cl.OCCN1CCN(CCCN2c3ccccc3Sc3ccc(C(F)(F)F)cc32)CC1 [Fluphenazine (dihydrochloride)] | 101 | 94 | 88 | – | – | –
CC(C(=O)O)c1ccc(-c2ccccc2)c(F)c1 (stereo not drawn) [Flurbiprofen] | 89 | 97 | 73 | – | – | –
CC(C)C(=O)Nc1ccc([N+](=O)[O-])c(C(F)(F)F)c1 [Flutamide] | 76 | 81 | 77 | – | – | –
CCC(=O)O[C@]1(C(=O)SCF)[C@H](C)C[C@H]2[C@@H]3C[C@H](F)C4=CC(=O)C=C[C@]4(C)[C@@]3(F)[C@@H](O)C[C@@]21C [Fluticasone propionate] | 92 | 103 | 90 | – | – | –
CC(C)n1c(/C=C/C(O)CC(O)CC(=O)O)c(-c2ccc(F)cc2)c2ccccc21 (stereo not drawn) [Fluvastatin Sodium] | 95 | 81 | 89 | – | – | –
COCCCC/C(=N\OCCN)c1ccc(C(F)(F)F)cc1 [Fluvoxamine maleate] | 100 | 88 | 75 | – | – | –
Nc1nc(=O)c2nc(CNc3ccc(C(=O)N[C@@H](CCC(=O)O)C(=O)O)cc3)cnc2[nH]1 [Folic acid] | 112 | 100 | 92 | – | – | –
Cc1cn[nH]c1 [Fomepizole] | 102 | 102 | 78 | – | – | –
COc1cc2c(Oc3ccc(NC(=O)C4(C(=O)Nc5ccc(F)cc5)CC4)cc3F)ccnc2cc1OCCCN1CCOCC1 [Foretinib (GSK1363089)] | 105 | 103 | 97 | – | – | –
C[C@]12CCC(=O)C(O)=C1CC[C@@H]1[C@@H]2CC[C@]2(C)C(=O)CC[C@@H]12 [Formestane] | – | – | – | 123 | 102 | 85
COc1ccc(C[C@@H](C)NC[C@H](O)c2ccc(O)c(NC=O)c2)cc1.COc1ccc(C[C@@H](C)NC[C@H](O)c2ccc(O)c(NC=O)c2)cc1.O=C(O)/C=C/C(=O)O [Formoterol Hemifumarate] | 106 | 95 | 91 | – | – | –
CNC[C@H](O)[C@@H](O)[C@H](O)[C@H](O)CO.CNC[C@H](O)[C@@H](O)[C@H](O)[C@H](O)CO.C[C@@H](O[C@H]1OCCN(Cc2nn(P(=O)(O)O)c(=O)[nH]2)[C@H]1c1ccc(F)cc1)c1cc(C(F)(F)F)cc(C(F)(F)F)c1 [Fosaprepitant dimeglumine salt] | 94 | 87 | 85 | – | – | –
O=C(O)P(=O)(O)O [Foscarnet Sodium] | 109 | 109 | 91 | – | – | –
C[C@@H]1O[C@@H]1P(=O)(O)O.NC(CO)(CO)CO [Fosfomycin Tromethamine] | 101 | 100 | 92 | – | – | –
CCC(=O)O[C@@H](O[P@](=O)(CCCCc1ccccc1)CC(=O)N1C[C@H](C2CCCCC2)C[C@H]1C(=O)[O-])C(C)C.[Na+] [Fosinopril Sodium] | 69 | 91 | 80 | – | – | –
COc1cc(Nc2ncc(F)c(Nc3ccc4c(n3)N(COP(=O)(O)O)C(=O)C(C)(C)O4)n2)cc(OC)c1OC [Fostamatinib (R788)] | 111 | 92 | 96 | – | – | –
C[C@]12CC[C@@H]3c4ccc(O)cc4C[C@@H](CCCCCCCCC[S+]([O-])CCCC(F)(F)C(F)(F)F)[C@H]3[C@@H]1CC[C@@H]2O (stereo partly drawn) [Fulvestrant] | 91 | 99 | 82 | – | – | –
Cl.O=C1OC(CN2CCOCC2)CN1/N=C/c1ccc([N+](=O)[O-])o1 (stereo not drawn) [Furaltadone HCl] | 80 | 74 | 65 | – | – | –
NS(=O)(=O)c1cc(C(=O)O)c(NCc2ccco2)cc1Cl [Furosemide] | 107 | 97 | 114 | – | – | –

SMILES | % Phosphatase Activity (compared to DMSO) PRL-2 [1, 4] [%] | % Phosphatase Activity (compared to DMSO) PRL-1 [2, 4] [%] | % Phosphatase Activity (compared to DMSO) PRL-3 [3, 4] [%] | % Phosphatase Activity (compared to DMSO) PRL-2 [1] [%] | % Phosphatase Activity (compared to DMSO) PRL-1 [2] [%] | % Phosphatase Activity (compared to DMSO) PRL-3 [3] [%]
CC(=O)O[C@H]1C[C@@]2(C)[C@@H](C[C@@H](O)[C@H]3[C@@]4(C)CC[C@@H](O)[C@@H](C)[C@@H]4CC[C@@]32C)/C1=C(\CCC=C(C)C)C(=O)O [Fusidate Sodium] | 79 | 87 | 66 | – | – | –
c1cn2cc(-c3ccc4cn[nH]c4c3)nc(Nc3ccc(N4CCOCC4)cc3)c2n1 [GS-9973] | 209 | 294 | 104 | – | – | –
COc1ncc(-c2ccc3nccc(-c4ccnnc4)c3c2)cc1NS(=O)(=O)c1ccc(F)cc1F [GSK2126458 (GSK458)] | 85 | 94 | 88 | – | – | –
Cl.NCC1(CC(=O)O)CCCCC1 [Gabapentin HCl] | 87 | 99 | 85 | – | – | –
NCC1(CC(=O)O)CCCCC1 [Gabapentin] | 92 | 105 | 87 | – | – | –
CCOC(=O)c1ccc(OC(=O)CCCCCN=C(N)N)cc1.CS(=O)(=O)O [Gabexate Mesylate] | 103 | 93 | 80 | – | – | –
C[C@]12CC[C@H](O)CC1=CC[C@@H]1[C@@H]2CC[C@]2(C)C(n3cnc4ccccc43)=CC[C@@H]12 [Galeterone] | 98 | 90 | 96 | – | – | –
CC[N+](CC)(CC)CCOc1cccc(OCC[N+](CC)(CC)CC)c1OCC[N+](CC)(CC)CC [Gallamine Triethiodide] | 105 | 104 | 84 | – | – | –
O=C(O)c1cc(O)c(O)c(O)c1 [Gallic acid] | 76 | 100 | 80 | – | – | –
Nc1nc(O)c2ncn(COC(CO)CO)c2n1 [Ganciclovir] | 98 | 90 | 99 | – | – | –
CC(C)c1cc(-c2n[nH]c(=O)n2-c2ccc3c(ccn3C)c2)c(O)cc1O [Ganetespib (STA-9090)] | 97 | 91 | 89 | – | – | –
COc1c(N2CCNC(C)C2)c(F)cc2c(=O)c(C(=O)O)cn(C3CC3)c12 (stereo not drawn) [Gatifloxacin] | 187 | 146 | 122 | – | – | –
COc1cc2ncnc(Nc3ccc(F)c(Cl)c3)c2cc1OCCCN1CCOCC1 [Gefitinib (ZD1839)] | 102 | 93 | 77 | – | – | –
Nc1ccn([C@@H]2O[C@H](CO)[C@@H](O)C2(F)F)c(=O)n1 [Gemcitabine HCl] | 78 | 93 | 94 | – | – | –
Nc1ccn([C@@H]2O[C@H](CO)[C@@H](O)C2(F)F)c(=O)n1 [Gemcitabine] | 100 | 109 | 77 | – | – | –
Cc1ccc(C)c(OCCCC(C)(C)C(=O)O)c1 [Gemfibrozil] | 95 | 93 | 76 | – | – | –
O=c1c(-c2ccc(O)cc2)coc2cc(O)cc(O)c12 [Genistein] | 100 | 95 | 64 | – | – | –
C#C[C@]1(O)C=C[C@H]2[C@@H]3CCC4=CC(=O)CC[C@@H]4[C@H]3CC[C@@]21CC [Gestodene] | 102 | 91 | 77 | – | – | –
Oc1cc(O)c(Cl)cn1 [Gimeracil] | 97 | 102 | 94 | – | – | –
